In US6395783B1, “Treatment of PCP addiction and PCP addiction-related behavior” (Brookhaven Science Associates, LLC, priority 2000, dated 2002):

How the values were obtained:
[1] = test system: extracellular DA concentrations in the nucleus accumbens (NAcc); test: In vivo microdialysis of PCP-induced extracellular DA in the nucleus accumbens of freely moving rats; design: species or system rat (Sprague-Dawley)
Source text: (§1) We explored the effects of increased endogenous GABA activity on PCP-induced extracellular DA concentrations in the prefrontal cortex (PFC) and nucleus accumbens (NAcc) of freely moving rats.
(§2) All animals were used under an IACUC-approved protocol and with strict adherence to the NIH guidelines. Adult male Sprague-Dawley rats (200-300 g, Taconic Farms), housed in the animals care facility under 12:12 light/dark conditions, were placed into 6 groups (n=3-6), anesthetized and siliconized guide cannulae were stereotactically implanted into the right NAcc (2.0 mm anterior and 1.0 mm lateral to bregms, and 7.0 mm ventral to the cortical surface) and prefrontal cortex (PFC) at least 4 days prior to study. Microdialysis probes (2.0 mm, Bioanalytical Systems, BAS, West Lafayette, Ind.) were positioned within the guide cannulae and artificial cerebrospinal fluid (ACSF, 155.0 mM […]) was administered through the probe using a CMA/100 microinfusion pump (BAS) at a flow rate of […].
Animals were placed in bowls, and probes were inserted and flushed with ACSF overnight. On the day of the study, a minimum of three samples were injected to determine baseline stability. Samples were collected for 20 min. and injected on-line (CMA/160, BAS). The average dopamine concentration of these three stable samples was defined as control (100%), and all subsequent treatment values were transformed to a percentage of that control. Upon establishing a stable baseline, the PCP was administered by intraperitoneal (i.p.) injection. The high performance liquid chromatography (HPLC) system consists of a BAS reverse-phase column (3.0μ C-18), a BAS LC-4C electrochemical transducer with a dual/glassy carbon electrode set at 650 mV, a computer that analyzes data on-line using a commercial software package (Chromograph Bioanalytical Systems), and a dual pen chart recorder. The mobile phase (flow rate 1.0 ml/min) consisted of 7.0% methanol, 50 mM sodium phosphate monobasic, 1.0 mM sodium octyl sulfate, and 0.1 mm […], pH 4.0. DA eluted at 7.5 min.
Gamma-vinyl GABA (GVG), an irreversible inhibitor of GABA-transaminase, was administered by intraperitoneal injection 2.5 hours prior to PCP (7 mg/kg). In all studies, animals were placed in the microdialysis bowls the night before the experiment and artificial cerebrospinal fluid (ACSF) was perfused through the microdialysis probes at a flow rate of 2.0 μl/min. At the end of each study, animals were sacrificed and their brains were removed and sectioned for probe placement verification.
Levels of extracellular DA were sampled from the NAcc continuously using a stereoaxically implanted probe. […]

[2] = test system: extracellular DA concentrations in the prefrontal cortex (PFC); test: In vivo microdialysis of PCP-induced extracellular DA in the prefrontal cortex of freely moving rats; design: species or system rat (Sprague-Dawley); details: p<0.01
Source text: as §1, §2
Animals were placed in bowls, and probes were inserted and flushed with ACSF overnight. On the day of the study, a minimum of three samples were injected to determine baseline stability. Samples were collected for 20 min. and injected on-line (CMA/160, BAS). […]

[3] = test system: synaptic dopamine (11C-raclopride binding); test: PET study with 11C-raclopride, GVG and PCP in primates; type: in vivo, Papio anubis baboons

SMILES | attenuation of the DA response to PCP in the NAcc ([1]; GVG 150 mg/kg i.p. 2.5 hours prior to PCP (7 mg/kg)) | attenuation of the DA response to PCP in the NAcc ([1]; GVG 300 mg/kg i.p. 2.5 hours prior to PCP (7 mg/kg), p<0.01) [%] | attenuation of the DA response to PCP in the NAcc ([1]; GVG 500 mg/kg i.p. 2.5 hours prior to PCP (7 mg/kg), p<0.001) [%] | attenuation of PFC DA activity (response to PCP) ([2]; GVG pretreatment (300 mg/kg group) i.p. 2.5 hours prior to PCP (7 mg/kg)) [%] | effect on PCP-induced increases in neostriatal synaptic DA assessed by PET ([3]; primate (baboon) brain) | effect on PCP-induced diminution of 11C-raclopride binding (increase in synaptic dopamine) ([3]; prior intravenous 300 mg/kg GVG, PCP 1 mg/kg, four baboons, all cases) | increase of DA concentrations above baseline in the NAcc ([1]; PCP alone, 7 mg/kg i.p., baseline = 100%, p<0.01) [%] | increase of DA concentrations above baseline in the PFC ([2]; PCP alone, 7 mg/kg i.p., baseline = 100%) [%]
C=CC(N)CCC(=O)O (racemic) [GVG, 4-amino-5-hexanoic acid] | no significant inhibition | 62 | 67 | 67 | significantly attenuated | prevented the diminution of ^11C-ralcopride binding | – | –
c1ccc(C2(N3CCCCC3)CCCCC2)cc1 [PCP, Phencyclidine] | – | – | – | – | – | – | 117 | 407
